The record followed here is paper PMC4747340, “A new class of small molecule estrogen receptor-alpha antagonists that overcome anti-estrogen resistance” (Oncotarget, 2015).

Holding throughout (assay type): cell-based
The target in one test is T1, ER Arg394Ala (Homo sapiens, UniProt P03372, R394A).
T1 construct: expressed in transfected cells; host or cells: MDA-MB-231
Kind of test: ER mutation analysis, ERE-TK-Luc reporter in transfected MDA-MB-231 cells. The following applies: MDA-MB-231 transfected with mutant ER, E2 10 nM, 24 hr. An excerpt:
(§1) B., C. Panels B and C show a comparison of the ER interaction of one of our original series of compounds (A7) (B) and one new compounds (48693-K/1) (C). ER is represented by gray ribbon and its residues interacting with the compounds are drawn with wireframe and labeled. […] The hydrogen bond interaction with ARG 394 is shown in green line. […] The cells were harvested for luciferase assays. Luciferase values are expressed as a percent of the +E2 vehicle control and are means ± SEMs of four wells. The data shown in panels D to G are representative of three independent experiments.
(§2) Subconfluent cells in 24-well dishes were transfected overnight with 0.25 μg of each indicated vector plus the ERE-TK-Luc reporter in serum-free DMEM containing Lipofectamine2000 (Life Technologies, Washington, DC). Total transfected DNA was kept constant by addition of control vector. The cells were washed, incubated in phenol red-free DMEM containing 5% charcoal-stripped serum (obtained from the Tissue Culture Shared Resource) (0.2 ml/well) ± E2 (10 nM) ± the indicated compound for 24-hr, and harvested for luciferase assays. For each assay condition was tested in quadrupicate. To monitor the transfection efficiency, cultures were co-transfected with plasmid pRSV-β-gal (Promega, Madison, WI) to visualize transfected cells by X-gal staining.

A further test addresses T2, ER Glu323Ala (Homo sapiens, UniProt P03372, E323A).
T2 construct: expressed in transfected cells; host or cells: MDA-MB-231
Described as above. The following applies: MDA-MB-231 transfected with mutant ER, E2 10 nM, 24 hr.
From the text: as §1, §2

The target of the next test is T3, ER Glu353Ala (Homo sapiens, UniProt P03372, E353A).
T3 construct: expressed in transfected cells; host or cells: MDA-MB-231
The description is as above. The following applies: MDA-MB-231 transfected with mutant ER, E2 10 nM, 24 hr.
From the text: as §1, §2

The next test has as its target T4, ER His356Ala (Homo sapiens, UniProt P03372, H356A).
T4 construct: expressed in transfected cells; host or cells: MDA-MB-231
The description is as above. The note with it: MDA-MB-231 transfected with mutant ER, E2 10 nM, 24 hr.
From the text: as §1, §2

A further test addresses T5, ER Ile326Ala (Homo sapiens, UniProt P03372, I326A).
T5 construct: expressed in transfected cells; host or cells: MDA-MB-231
Described as above. The note with it: MDA-MB-231 transfected with mutant ER, E2 10 nM, 24 hr.
From the text: as §1, §2

Another test deals with T6, ER Ile386Ala (Homo sapiens, UniProt P03372, I386A).
T6 construct: expressed in transfected cells; host or cells: MDA-MB-231
Described as above. The following applies: MDA-MB-231 transfected with mutant ER, E2 10 nM, 24 hr.
From the text: as §1, §2

The target in the next test is T7, ER Ile386Ala+Leu387Ala (Homo sapiens, UniProt P03372, I386A/L387A).
T7 construct: expressed in transfected cells; host or cells: MDA-MB-231
The test is described as above. The following applies: MDA-MB-231 transfected with mutant ER, E2 10 nM, 24 hr.
From the text: as §1, §2

The target of a further test is T8, ER Leu327Ala (Homo sapiens, UniProt P03372, L327A).
T8 construct: expressed in transfected cells; host or cells: MDA-MB-231
The test is described as above. The following applies: MDA-MB-231 transfected with mutant ER, E2 10 nM, 24 hr.
From the text: as §1, §2

The target of the next test is T9, ER Leu387Ala (Homo sapiens, UniProt P03372, L387A).
T9 construct: expressed in transfected cells; host or cells: MDA-MB-231
The description is as above. The note with it: MDA-MB-231 transfected with mutant ER, E2 10 nM, 24 hr.
From the text: as §1, §2

The target in a further test is T10, ER Lys449Ala (Homo sapiens, UniProt P03372, K449A).
T10 construct: expressed in transfected cells; host or cells: MDA-MB-231
The test is described as above. The following applies: MDA-MB-231 transfected with mutant ER, E2 10 nM, 24 hr.
From the text: as §1, §2

The target in the next test is T11, ER Pro324Ala (Homo sapiens, UniProt P03372, P324A).
T11 construct: expressed in transfected cells; host or cells: MDA-MB-231
The description is as above. The following applies: MDA-MB-231 transfected with mutant ER, E2 10 nM, 24 hr.
From the text: as §1, §2

The next test deals with T12, ER Pro325Ala (Homo sapiens, UniProt P03372, P325A).
T12 construct: expressed in transfected cells; host or cells: MDA-MB-231
The description is as above. The note with it: MDA-MB-231 transfected with mutant ER, E2 10 nM, 24 hr.
From the text: as §1, §2

The target in a further test is T13, ER Prol325Ala (Homo sapiens, UniProt P03372, P325A).
T13 construct: expressed in transfected cells; host or cells: MDA-MB-231
Described as above. The note with it: MDA-MB-231 transfected with mutant ER, E2 10 nM, 24 hr; second row for residue 325.
From the text: as §1, §2

Another test concerns the target T14, ER Trp393Ala (Homo sapiens, UniProt P03372, W393A).
T14 construct: expressed in transfected cells; host or cells: MDA-MB-231
The test is described as above. The following applies: MDA-MB-231 transfected with mutant ER, E2 10 nM, 24 hr.
From the text: as §1, §2

A further test has as its target T15, Wild-type ER (Homo sapiens, UniProt P03372).
T15 construct: expressed in transfected cells; host or cells: MDA-MB-231
The description is as above. The following applies: MDA-MB-231 transfected with wtER, E2 10 nM, 24 hr.
From the text: as §1, §2

The target in test [1] is T16, estrogen receptor-alpha (ER) (Homo sapiens, UniProt P03372).
T16 sequence (P03372 1-595): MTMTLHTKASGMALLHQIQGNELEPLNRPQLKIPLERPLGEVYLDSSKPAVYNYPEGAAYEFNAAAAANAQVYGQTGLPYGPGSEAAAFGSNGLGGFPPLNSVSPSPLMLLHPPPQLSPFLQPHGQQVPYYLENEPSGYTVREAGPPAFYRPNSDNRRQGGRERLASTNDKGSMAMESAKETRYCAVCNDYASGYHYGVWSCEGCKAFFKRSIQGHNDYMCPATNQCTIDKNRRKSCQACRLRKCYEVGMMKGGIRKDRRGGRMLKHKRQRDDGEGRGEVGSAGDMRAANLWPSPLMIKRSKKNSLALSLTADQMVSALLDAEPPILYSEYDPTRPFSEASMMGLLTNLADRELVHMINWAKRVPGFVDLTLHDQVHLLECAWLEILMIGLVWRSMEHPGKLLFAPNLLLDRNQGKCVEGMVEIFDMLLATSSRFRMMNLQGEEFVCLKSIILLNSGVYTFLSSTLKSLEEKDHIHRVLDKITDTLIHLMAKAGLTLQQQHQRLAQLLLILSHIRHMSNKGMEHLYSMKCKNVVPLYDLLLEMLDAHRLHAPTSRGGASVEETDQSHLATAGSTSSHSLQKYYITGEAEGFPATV
Kind of test: constitutive ER activity, ERE-TK-Luc reporter, in anti-estrogen resistant LCC9 cells. On the set-up: LCC9 cells in 24-well dishes were transfected overnight with the ERE-TK-Luc reporter plasmid; endogenous in cells; host or cells: LCC9. The following applies: compound plus Tam compared with compound alone, 24 hr. The protocol: For MCF-7, luciferase activity is expressed as a fold-change relative to the no E2 control. For LCC9, luciferase activity is expressed relative to the control without the reporter present. Values plotted are means ± SEMs of four replicate wells. The data shown in each panel are representative of three independent experiments.
The cells were then treated with the indicated concentrations of the six bioactive compounds or vehicle only (DMSO) for 24-hr and assayed for luciferase activity. Luciferase activity is expressed as a percentage of the DMSO control. Values are means ± SEMs of four replicate wells. The data shown in each panel are representative of three independent experiments.
The cells were then harvested for luciferase assays. Luciferase activity was expressed as a fold-change relative to the no reporter control. Values plotted are means ± SEMs of four replicate wells. The data shown are representative of three independent experiments.
as §2

T5 sequence (P03372 whole entry I326A): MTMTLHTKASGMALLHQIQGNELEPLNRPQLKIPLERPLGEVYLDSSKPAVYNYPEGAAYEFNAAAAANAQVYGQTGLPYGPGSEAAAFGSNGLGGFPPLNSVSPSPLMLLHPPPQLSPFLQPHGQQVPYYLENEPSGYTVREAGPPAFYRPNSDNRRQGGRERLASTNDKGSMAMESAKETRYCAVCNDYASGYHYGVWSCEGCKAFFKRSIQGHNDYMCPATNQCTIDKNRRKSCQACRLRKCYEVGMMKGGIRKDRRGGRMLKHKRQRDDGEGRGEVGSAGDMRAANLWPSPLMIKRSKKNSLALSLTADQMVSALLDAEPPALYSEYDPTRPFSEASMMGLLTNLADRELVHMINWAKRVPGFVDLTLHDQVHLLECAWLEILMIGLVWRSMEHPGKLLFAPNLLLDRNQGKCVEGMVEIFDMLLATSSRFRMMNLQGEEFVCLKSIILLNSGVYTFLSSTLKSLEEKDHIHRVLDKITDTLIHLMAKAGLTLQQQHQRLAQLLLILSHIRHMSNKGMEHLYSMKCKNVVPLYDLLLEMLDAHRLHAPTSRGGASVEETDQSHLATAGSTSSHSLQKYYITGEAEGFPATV
T14 sequence (P03372 whole entry W393A): as the sequence (P03372 whole entry I326A) above, with A326I, W393A counted along it
T11 sequence (P03372 whole entry P324A): as the sequence (P03372 whole entry I326A) above, with P324A, A326I counted along it
T13 sequence (P03372 whole entry P325A): as the sequence (P03372 whole entry I326A) above, with P325A, A326I counted along it
T12 sequence (P03372 whole entry P325A): as the sequence (P03372 whole entry I326A) above, with P325A, A326I counted along it
T7 sequence (P03372 whole entry I386A/L387A): as the sequence (P03372 whole entry I326A) above, with A326I, I386A, L387A counted along it
T8 sequence (P03372 whole entry L327A): as the sequence (P03372 whole entry I326A) above, with A326I, L327A counted along it
T1 sequence (P03372 whole entry R394A): as the sequence (P03372 whole entry I326A) above, with A326I, R394A counted along it
T6 sequence (P03372 whole entry I386A): as the sequence (P03372 whole entry I326A) above, with A326I, I386A counted along it
T9 sequence (P03372 whole entry L387A): as the sequence (P03372 whole entry I326A) above, with A326I, L387A counted along it
T3 sequence (P03372 whole entry E353A): as the sequence (P03372 whole entry I326A) above, with A326I, E353A counted along it
T2 sequence (P03372 whole entry E323A): as the sequence (P03372 whole entry I326A) above, with E323A, A326I counted along it
T4 sequence (P03372 whole entry H356A): as the sequence (P03372 whole entry I326A) above, with A326I, H356A counted along it
T10 sequence (P03372 whole entry K449A): as the sequence (P03372 whole entry I326A) above, with A326I, K449A counted along it

As a reminder, the IC50 is the concentration at which inhibition is half-maximal. A low value points to inhibition by little substance. Turning to `Oc1cc(CN2COc3ccccc32)c(O)cc1CNC1CCCCC1` [A7, reference compound], the IC50 against ER Arg394Ala came out at 12 µM; against ER Glu323Ala, 13 µM; against ER Glu353Ala it was 11 µM; against ER His356Ala, 11 µM; on ER Ile326Ala, 13 µM; on ER Ile386Ala it was 2.5 µM. Besides, the IC50 at ER Ile386Ala+Leu387Ala stood at 2.5 µM; on ER Leu327Ala, 12 µM; against ER Leu387Ala, 2.5 µM; against ER Lys449Ala, 2 µM; at ER Pro324Ala, 3 µM; on ER Pro325Ala, 7 µM. In addition, the figures for the IC50 against ER Prol325Ala, against ER Trp393Ala and against Wild-type ER were 7 µM, 12 µM and 2.5 µM, respectively. For the same molecule, in test [1], the “ER activity in LCC9 cells, compound combined with Tam” value is “no more inhibition of ER activity than A7 alone”.
